Counter-ions that a name gives are not always drawn.

The text below walks through data of patent US20160237045A1, “SUBSTITUTED PHENYLALANINE DERIVATIVES” (BAYER PHARMA AKTIENGESELLSCHAFT, priority 2013, published 2016).

One assay concerns the target T1, human factor XIa (Homo sapiens, UniProt P03951).
T1 construct: purchased Kordia
Put plainly: Measurement of FXIa inhibition (fluorogenic peptide substrate Boc-Glu(OBzl)-Ala-Arg-AMC). It is filed as biochemical. The conditions noted are these: factor XIa from Kordia 0.45 nM; 15 min preincubation; 30 min at 22° C.; fluorescence of AMC. The procedure:
a.1) Measurement of FXIa Inhibition
The factor XIa inhibition of the substances according to the invention is determined using a biochemical test system which utilizes the reaction of a peptidic factor XIa substrate to determine the enzymatic activity of human factor XIa. Here, factor XIa cleaves from the peptic factor XIa substrate the C-terminal aminomethylcoumarin (AMC), the fluorescence of which is measured. The determinations are carried out in microtitre plates.
Test substances are dissolved in dimethyl sulphoxide and serially diluted in dimethyl sulphoxide (3000 μM to 0.0078 μM; resulting final concentrations in the test: 50 μM to 0.00013 μM). In each case 1 μl of the diluted substance solutions is placed into the wells of white microtitre plates from Greiner (384 wells). Subsequently, the following are added successively: 20 μl of assay buffer (50 mmol/l Tris buffer pH 7.4; 100 mmol/l sodium chloride; 5 mmol/l calcium chloride; 0.1% bovine serum albumin) and 20 μl of factor XIa from Kordia (0.45 nM in assay buffer). After 15 min of incubation, the enzyme reaction is started by addition of 20 μl of the factor XIa substrate Boc-Glu(OBzl)-Ala-Arg-AMC dissolved in assay buffer (10 μM in assay buffer) from Bachem, the mixture is incubated at room temperature (22° C.) for 30 min and fluorescence is then measured (excitation: 360 nm, emission: 460 nm). The measured emissions of the test batches with test substance are compared to those of control batches without test substance (only dimethyl sulphoxide instead of test substance in dimethyl sulphoxide), and IC50 values are calculated from the concentration/activity relationships.

The test system of a further assay is plasma. Description: Determination of anticoagulatory activity: activated partial thromboplastin time (aPTT) in plasma. The conditions noted are these: in vitro in human and animal plasma (species of Table B not stated); C.K. Prest kit; 37° C., 3 minutes incubation. The procedure:
a.4) Determination of Anticoagulatory Activity
The anticoagulatory activity of the test substances is determined in vitro in human and animal plasma (for example mouse, rat, rabbit, pig and dog plasma). To this end, blood is drawn off in a mixing ratio of sodium citrate/blood of 1:9 using a 0.11 molar sodium citrate solution as receiver. Immediately after the blood has been drawn off, it is mixed thoroughly and centrifuged at about 4000 g for 15 minutes. The supernatant is pipetted off.
The activated partial thromboplastin time (aPTT) is determined in the presence of varying concentrations of test substance or the corresponding solvent using a commercial test kit (C.K. Prest from Diagnostica Stago). The test compounds are incubated with the plasma and the PTT reagent (cephalin, kaolin) at 37° C. for 3 minutes. Coagulation is then started by addition of a 25 mM aqueous calcium chloride solution, and the time when coagulation occurs is determined. The concentration of test substance which brings about a 1.5-fold extension of the aPTT is determined.

T1 sequence (P03951 388-625 limits assumed): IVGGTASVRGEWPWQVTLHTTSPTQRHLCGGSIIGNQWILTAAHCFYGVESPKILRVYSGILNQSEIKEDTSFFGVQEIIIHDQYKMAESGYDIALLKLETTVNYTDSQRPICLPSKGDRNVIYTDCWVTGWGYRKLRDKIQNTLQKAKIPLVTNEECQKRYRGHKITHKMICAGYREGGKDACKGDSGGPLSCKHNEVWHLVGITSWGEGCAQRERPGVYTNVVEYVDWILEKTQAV
T1 sequence (P03951 19-387 partner limits assumed): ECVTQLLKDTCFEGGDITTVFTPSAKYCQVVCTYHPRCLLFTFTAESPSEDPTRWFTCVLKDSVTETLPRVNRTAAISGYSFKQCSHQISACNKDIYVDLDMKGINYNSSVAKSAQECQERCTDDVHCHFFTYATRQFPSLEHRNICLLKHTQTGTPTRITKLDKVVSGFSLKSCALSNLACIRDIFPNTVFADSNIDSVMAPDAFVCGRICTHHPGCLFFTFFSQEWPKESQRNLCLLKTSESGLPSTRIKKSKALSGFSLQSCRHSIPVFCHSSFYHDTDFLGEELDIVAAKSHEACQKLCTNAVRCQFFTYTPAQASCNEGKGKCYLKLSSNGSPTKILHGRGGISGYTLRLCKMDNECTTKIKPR

One may read the IC50 as the concentration that inhibits the measured activity by half. Lower therefore signals greater potency. `CNC(=O)c1ccccc1-c1ccc(C[C@H](NC(=O)[C@H]2CC[C@H](CN)CC2)C(=O)Nc2ccc(-c3nn[nH]n3)cc2)cc1` [Example 7, 4′-[(2S)-2-({[trans-4-(Aminomethyl)cyclohexyl]carbonyl}amino)-3-oxo-3-{[4-(2H-tetrazol-5-yl)phenyl]amino}propyl]-N-methylbiphenyl-2-carboxamide hydrochloride] registered a half-inhibitory concentration (IC50) on human factor XIa of 12 nM. Further, the “aPTT (concentration of test substance which brings about a 1.5-fold extension of the aPTT)” value with plasma was determined as 0.61 µmol/L.
In turn, `NC[C@H]1CC[C@H](C(=O)N[C@@H](Cc2ccc(-c3ccccc3N)cc2)C(=O)Nc2ccc(-c3nn[nH]n3)cc2)CC1` [Example 8, trans-N-[(2S)-3-(2′-Aminobiphenyl-4-yl)-1-oxo-1-{[4-(2H-tetrazol-5-yl)phenyl]amino}propan-2-yl]-4-(aminomethyl)cyclohexanecarboxamide hydrochloride] had an IC50 at human factor XIa of 5.5 nM. For the same molecule, the “aPTT (concentration of test substance which brings about a 1.5-fold extension of the aPTT)” value in the assay with plasma is 0.24 µmol/L.
